For the test, the target named is T1, CDK2/Cyclin E (Homo sapiens, UniProt P24941).
T1 construct: The open reading frames of CDK2 and Cyclin E were isolated by reverse transcriptase-PCR; made in house; host or cells: Sf21 (Spodoptera frugiperda) insect cells, baculovirus co-infection; GST-Rb substrate made in E. coli BL21 (DE3) pLysS
As to the kind of experiment: in vitro kinase assay (Scintillation Proximity Assay), incorporation of [γ-33-P]-ATP into GST-Rb. Type of test: biochemical. To be noted: CDK2/Cyclin E partially-purified enzyme, GST-Rb substrate, 0.2 μM ATP, 60 minutes room temperature; read-out: CDK2 inhibitory activity IC50. On the procedure: The compounds were tested in an in vitro kinase assay in 96 well format using Scintillation Proximity Assay (SPA—obtained from Amersham) for measuring incorporation of [γ-33-P]-Adenosine Triphosphate into a test substrate (GST-Retinoblastoma protein; GST-Rb). In each well was placed the compound to be tested (diluted in DMSO and water to correct concentrations) and in control wells either roscovitine as an inhibitor control or DMSO as a […] control.
Approximately 0.2 μl of CDK2/Cyclin E partially-purified enzyme (amount dependent on enzyme activity) diluted in 25 μl incubation buffer was added to each well then 20 μl of GST-Rb/ATP/ATP33 mixture (containing 0.5 μg GST-Rb and 0.2 μM ATP and 0.14 μCi [γ-33-P]-Adenosine Triphosphate in incubation buffer), and the resulting mixture shaken gently, then incubated at room temperature for 60 minutes. […]
The plates were sealed with Topseal-S plate sealers, left for two hours then spun at 2500 rpm, 1124× g., for 5 minutes. The plates were read on a Topcount for 30 seconds per well. […]
The open reading frames of CDK2 and Cyclin E were isolated by reverse transcriptase-PCR using HeLa cell and activated T cell mRNA as a template and cloned into the insect expression vector pVL1393 (obtained from Invitrogen 1995 catalogue number. V1392-20). […]
Background: Scintillation proximity formats need no separation of bound from free tracer.

Usually IC50 stands for the midpoint of a concentration-inhibition curve. As to `O=S(=O)(c1ccc(Nc2nccc(-c3cnc4ccccn34)n2)cc1)N1COCOC1` [Example 11, 2-[4-(3,5-Dioxapiperidin-1-yl)sulphonylanilino]-4-(imidazo[1,2a]pyrid-3-yl)pyrimidine], the IC50 was 190 nM.
In the case of `CCN(CC)CCOc1ccc(Nc2nccc(-c3cnc4ccccn34)n2)cc1` [Example 12, 2-[4-(2-Diethylaminoethoxy)anilino]-4-(imidazo[1,2a]pyrid-3-yl)pyrimidine], the IC50 is 170 nM.

These data come from patent US6855719B1, “Imidazo[1,2-A]pyridine and pyrazolo[2,3-A]pyridine derivatives” (AstraZeneca AB, priority 1999, dated 2005).
